Data reported in patent US20230265098A1, “ALKYNE QUINAZOLINE DERIVATIVES AS INHIBITORS OF ERBB2” (EnLiven Therapeutics, Inc., priority 2020, published 2023).

Tests used:
Ba/F3 ERBB2-L869R = target: T1, Ba/F3 ERBB2-L869R (Homo sapiens, UniProt P04626, L869R, cells depend on it); assay: Cell viability assay (CellTiter Glo); type: cell-based, mouse; conditions: 72 hours; 3000 cells per well, 96-well plates; read-out: Cell viability IC50, nM, Ba/F3 ERBB2-L869R
T1 construct: Ba/F3 cell lines were engineered to express human ERBB2 or EGFR kinases, rendering the cells IL-3 independent
Procedure, shortened: (§1)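 Murine Ba/F3 cells made IL-3-independent by retroviral human EGFR or ERBB2 were seeded at 3000 or 300 cells per well and exposed to serially diluted compound (DMSO ≤0.1%) for 72 hours at 37° C, 5% CO2. CellTiter Glo luminescence was normalised to DMSO and media-only controls and fitted to a sigmoidal dose-response.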

Ba/F3 ERBB2-T798M = target: T2, Ba/F3 ERBB2-T798M (Homo sapiens, UniProt P04626, T798M, cells depend on it); assay: Cell viability assay (CellTiter Glo); type: cell-based, mouse; conditions: 72 hours; 3000 cells per well, 96-well plates; read-out: Cell viability IC50, nM, Ba/F3 ERBB2-T798M
T2 construct: Ba/F3 cell lines were engineered to express human ERBB2 or EGFR kinases, rendering the cells IL-3 independent
Procedure, shortened: as §1

Ba/F3 ERBB2-G776VC = target: T3, Ba/F3 ERBB2-G776VC (Homo sapiens, UniProt P04626, DELINS776-776VC, cells depend on it); assay: Cell viability assay (CellTiter Glo); type: cell-based, mouse; conditions: 72 hours; 3000 cells per well, 96-well plates; read-out: Cell viability IC50, nM, Ba/F3 ERBB2-G776VC
T3 construct: Ba/F3 cell lines were engineered to express human ERBB2 or EGFR kinases, rendering the cells IL-3 independent
T3 sequence (P04626 with tags, fused parts or gaps DELINS776-776VC): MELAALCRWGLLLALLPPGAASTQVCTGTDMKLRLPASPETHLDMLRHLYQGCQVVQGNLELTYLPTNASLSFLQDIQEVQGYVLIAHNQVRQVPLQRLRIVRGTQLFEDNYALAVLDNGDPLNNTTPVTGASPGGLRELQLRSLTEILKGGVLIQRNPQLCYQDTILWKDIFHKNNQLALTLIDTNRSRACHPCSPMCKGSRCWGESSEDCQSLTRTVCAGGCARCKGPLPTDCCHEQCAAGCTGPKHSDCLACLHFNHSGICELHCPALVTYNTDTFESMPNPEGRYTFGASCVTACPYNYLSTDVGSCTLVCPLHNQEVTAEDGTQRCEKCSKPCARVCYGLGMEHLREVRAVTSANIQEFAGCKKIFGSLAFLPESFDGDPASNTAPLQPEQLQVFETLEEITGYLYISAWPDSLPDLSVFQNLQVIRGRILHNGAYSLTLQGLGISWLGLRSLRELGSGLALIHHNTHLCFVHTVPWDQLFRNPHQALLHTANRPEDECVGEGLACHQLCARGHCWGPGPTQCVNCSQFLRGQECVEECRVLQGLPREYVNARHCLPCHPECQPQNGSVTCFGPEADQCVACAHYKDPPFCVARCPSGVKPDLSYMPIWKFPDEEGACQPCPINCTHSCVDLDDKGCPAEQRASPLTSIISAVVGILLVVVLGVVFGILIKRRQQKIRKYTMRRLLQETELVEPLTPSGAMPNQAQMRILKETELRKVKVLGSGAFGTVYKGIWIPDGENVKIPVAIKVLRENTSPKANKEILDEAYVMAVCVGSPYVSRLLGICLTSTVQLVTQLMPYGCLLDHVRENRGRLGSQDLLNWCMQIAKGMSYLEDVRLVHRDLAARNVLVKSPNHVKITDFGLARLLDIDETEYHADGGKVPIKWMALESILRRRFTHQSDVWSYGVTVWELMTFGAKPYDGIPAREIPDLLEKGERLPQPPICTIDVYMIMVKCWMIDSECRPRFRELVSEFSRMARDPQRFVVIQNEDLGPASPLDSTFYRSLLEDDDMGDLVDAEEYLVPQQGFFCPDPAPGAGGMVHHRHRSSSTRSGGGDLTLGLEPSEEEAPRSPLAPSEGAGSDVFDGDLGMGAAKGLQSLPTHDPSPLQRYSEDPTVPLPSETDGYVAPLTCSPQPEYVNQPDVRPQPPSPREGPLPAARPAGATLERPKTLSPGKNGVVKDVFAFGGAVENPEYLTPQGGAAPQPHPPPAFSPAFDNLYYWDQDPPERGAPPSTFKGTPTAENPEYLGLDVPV
Procedure, shortened: as §1

[1] = target: T4, Ba/F3 ERBB2 A775_G776insYVMA (Homo sapiens, UniProt P04626, DUP772-775, cells depend on it); assay: Cell viability assay (CellTiter Glo); type: cell-based, mouse; conditions: 72 hours; 3000 cells per well, 96-well plates (Tables B3-B4); read-out: Cell viability IC50, nM, Ba/F3 ERBB2 A775_G776insYVMA
T4 construct: Ba/F3 cell lines were engineered to express human ERBB2 or EGFR kinases, rendering the cells IL-3 independent
Procedure, shortened: as §1

Ba/F3 ERBB2 wt = target: T5, Ba/F3 ERBB2 wt (Homo sapiens, UniProt P04626); assay: Cell viability assay (CellTiter Glo); type: cell-based, mouse; conditions: 72 hours; 3000 cells per well, 96-well plates; read-out: Cell viability IC50, nM, Ba/F3 ERBB2 wt
T5 construct: Ba/F3 cell lines were engineered to express human ERBB2 or EGFR kinases, rendering the cells IL-3 independent
T5 sequence (P04626 whole entry, change not shown): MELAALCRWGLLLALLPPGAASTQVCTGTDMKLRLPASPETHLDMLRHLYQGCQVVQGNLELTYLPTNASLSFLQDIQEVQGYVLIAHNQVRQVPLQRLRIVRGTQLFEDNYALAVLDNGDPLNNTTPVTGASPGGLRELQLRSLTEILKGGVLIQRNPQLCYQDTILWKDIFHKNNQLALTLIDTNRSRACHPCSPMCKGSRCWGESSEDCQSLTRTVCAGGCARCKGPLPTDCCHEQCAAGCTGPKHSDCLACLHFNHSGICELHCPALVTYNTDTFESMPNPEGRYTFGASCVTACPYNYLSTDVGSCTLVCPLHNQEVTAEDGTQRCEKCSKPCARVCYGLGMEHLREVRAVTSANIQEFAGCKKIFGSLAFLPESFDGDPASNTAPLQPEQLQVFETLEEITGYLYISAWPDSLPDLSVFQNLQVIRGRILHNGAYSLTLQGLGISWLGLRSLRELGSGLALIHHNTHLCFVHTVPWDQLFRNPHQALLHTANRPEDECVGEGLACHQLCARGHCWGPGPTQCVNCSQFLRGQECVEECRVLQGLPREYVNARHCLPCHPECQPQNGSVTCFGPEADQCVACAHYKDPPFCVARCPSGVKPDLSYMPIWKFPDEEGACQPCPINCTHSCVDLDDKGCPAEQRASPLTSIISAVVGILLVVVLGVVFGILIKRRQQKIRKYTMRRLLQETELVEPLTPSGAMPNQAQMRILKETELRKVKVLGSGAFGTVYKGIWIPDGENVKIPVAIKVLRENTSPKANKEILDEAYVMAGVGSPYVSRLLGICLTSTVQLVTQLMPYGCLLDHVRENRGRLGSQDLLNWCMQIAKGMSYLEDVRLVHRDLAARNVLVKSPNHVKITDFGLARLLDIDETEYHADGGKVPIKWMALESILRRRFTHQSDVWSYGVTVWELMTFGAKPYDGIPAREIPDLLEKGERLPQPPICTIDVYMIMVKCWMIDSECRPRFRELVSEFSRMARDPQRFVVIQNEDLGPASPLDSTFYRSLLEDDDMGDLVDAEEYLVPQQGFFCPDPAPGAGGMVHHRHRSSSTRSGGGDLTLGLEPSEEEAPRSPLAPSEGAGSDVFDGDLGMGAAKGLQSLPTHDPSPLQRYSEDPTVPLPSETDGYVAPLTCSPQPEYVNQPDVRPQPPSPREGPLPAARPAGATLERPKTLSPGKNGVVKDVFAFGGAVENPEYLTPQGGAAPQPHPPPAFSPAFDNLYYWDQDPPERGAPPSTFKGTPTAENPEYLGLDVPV
Procedure, shortened: as §1

Ba/F3 ERBB2-L755S = target: T6, Ba/F3 ERBB2-L755S (Homo sapiens, UniProt P04626, L755S, cells depend on it); assay: Cell viability assay (CellTiter Glo); type: cell-based, mouse; conditions: 72 hours; 3000 cells per well, 96-well plates; read-out: Cell viability IC50, nM, Ba/F3 ERBB2-L755S
T6 construct: Ba/F3 cell lines were engineered to express human ERBB2 or EGFR kinases, rendering the cells IL-3 independent
Procedure, shortened: as §1

Ba/F3 ERBB2-V777L = target: T7, Ba/F3 ERBB2-V777L (Homo sapiens, UniProt P04626, V777L, cells depend on it); assay: Cell viability assay (CellTiter Glo); type: cell-based, mouse; conditions: 72 hours; 3000 cells per well, 96-well plates; read-out: Cell viability IC50, nM, Ba/F3 ERBB2-V777L
T7 construct: Ba/F3 cell lines were engineered to express human ERBB2 or EGFR kinases, rendering the cells IL-3 independent
Procedure, shortened: as §1

[2] = target: T8, Ba/F3 ERBB2-V777_G778insGC (Homo sapiens, UniProt P04626, INS778CG, cells depend on it); assay: Cell viability assay (CellTiter Glo); type: cell-based, mouse; conditions: 72 hours; 3000 cells per well, 96-well plates; read-out: Cell viability IC50, nM, Ba/F3 ERBB2-V777_G778insGC
T8 construct: Ba/F3 cell lines were engineered to express human ERBB2 or EGFR kinases, rendering the cells IL-3 independent
Procedure, shortened: as §1

MDA-MB-175VII cells = assay: Cell viability assay (CellTiter Glo); type: cell-based; conditions: Homo sapiens, 72 hours, 2000 cells per well, 384-well, RPMI + 10% FBS
Experimental: (§2) Cells were treated with compounds, and cell viability was measured as a metric of kinase inhibition.
(§3) The Ba/F3 cell line is IL-3-dependent mouse cell line derived from the C3H mouse strain. Ba/F3 cell lines were engineered to express human ERBB2 or EGFR kinases, rendering the cells IL-3 independent. The lines were generated via retroviral transduction utilizing a Moloney murine leukemia virus (MMLV) promoter, and constructs are stably integrated into the cell genome.
(§4) Similarly, Ba/F3 cell lines engineered to express EGFR, ERBB2, or ERBB2 mutants were grown, harvested, counted and seeded at 3000 cells per well in 96-well plates for the data sets shown in Tables B3-B4, and seeded at 300 cells per well in 384-well plates for the data set shown in Table B5. A subset of wells contained media only (low control, “LC”).
(§5) Table B2 provides the growth media and number of cells seeded per well for the each cell line.
(§6) Compounds were dissolved in DMSO and serially diluted. Serially-diluted compound or a DMSO only control (high control, “HC”) was added to the plated cells in each well. […] The final proportion of DMSO never exceeded 0.1%.
(§7) Plates were placed in a 37° C., 5% CO2 incubator for 72 hours. Plates were then removed from the incubator and equilibrated for 15 minutes at room temperature. 40 IA of CellTiter Glo reagent (Promega) was added to measure the relative level of metabolically active cells by quantifying intracellular ATP concentrations. Plates were incubated for 30 minutes at room temperature, and luminescence was measured. Percent viability was normalized to a vehicle control only using the following formula: % viability=100×(LumSample−LumLC) (LumHC−LumLC). Graphical curves were fitted using a nonlinear regression model with a sigmoidal dose response.

BT-474 cells = assay: Cell viability assay (CellTiter Glo); type: cell-based; conditions: Homo sapiens, 72 hours, 2000 cells per well, 384-well, DMEM + 10% FBS
Experimental: as §2, §3, §4, §5, §6, §7

A431 cells = assay: Cell viability assay (CellTiter Glo); type: cell-based; conditions: Homo sapiens, A-431; 72 hours; 1500 cells per well, 384-well; DMEM + 10% FBS
Experimental: as §2, §3, §4, §5, §6, §7

[3] = target: T9, phosphorylated ERBB2 (pERBB2) (Homo sapiens, UniProt P04626); assay: Detection of phosphorylated ERBB2 (pERBB2) by ELISA in BT-474 cells; type: cell-based; conditions: four hours incubation with compound, OD 450 nm
T9 construct: endogenous in cells; host or cells: BT-474
T9 sequence (P04626 23-1255): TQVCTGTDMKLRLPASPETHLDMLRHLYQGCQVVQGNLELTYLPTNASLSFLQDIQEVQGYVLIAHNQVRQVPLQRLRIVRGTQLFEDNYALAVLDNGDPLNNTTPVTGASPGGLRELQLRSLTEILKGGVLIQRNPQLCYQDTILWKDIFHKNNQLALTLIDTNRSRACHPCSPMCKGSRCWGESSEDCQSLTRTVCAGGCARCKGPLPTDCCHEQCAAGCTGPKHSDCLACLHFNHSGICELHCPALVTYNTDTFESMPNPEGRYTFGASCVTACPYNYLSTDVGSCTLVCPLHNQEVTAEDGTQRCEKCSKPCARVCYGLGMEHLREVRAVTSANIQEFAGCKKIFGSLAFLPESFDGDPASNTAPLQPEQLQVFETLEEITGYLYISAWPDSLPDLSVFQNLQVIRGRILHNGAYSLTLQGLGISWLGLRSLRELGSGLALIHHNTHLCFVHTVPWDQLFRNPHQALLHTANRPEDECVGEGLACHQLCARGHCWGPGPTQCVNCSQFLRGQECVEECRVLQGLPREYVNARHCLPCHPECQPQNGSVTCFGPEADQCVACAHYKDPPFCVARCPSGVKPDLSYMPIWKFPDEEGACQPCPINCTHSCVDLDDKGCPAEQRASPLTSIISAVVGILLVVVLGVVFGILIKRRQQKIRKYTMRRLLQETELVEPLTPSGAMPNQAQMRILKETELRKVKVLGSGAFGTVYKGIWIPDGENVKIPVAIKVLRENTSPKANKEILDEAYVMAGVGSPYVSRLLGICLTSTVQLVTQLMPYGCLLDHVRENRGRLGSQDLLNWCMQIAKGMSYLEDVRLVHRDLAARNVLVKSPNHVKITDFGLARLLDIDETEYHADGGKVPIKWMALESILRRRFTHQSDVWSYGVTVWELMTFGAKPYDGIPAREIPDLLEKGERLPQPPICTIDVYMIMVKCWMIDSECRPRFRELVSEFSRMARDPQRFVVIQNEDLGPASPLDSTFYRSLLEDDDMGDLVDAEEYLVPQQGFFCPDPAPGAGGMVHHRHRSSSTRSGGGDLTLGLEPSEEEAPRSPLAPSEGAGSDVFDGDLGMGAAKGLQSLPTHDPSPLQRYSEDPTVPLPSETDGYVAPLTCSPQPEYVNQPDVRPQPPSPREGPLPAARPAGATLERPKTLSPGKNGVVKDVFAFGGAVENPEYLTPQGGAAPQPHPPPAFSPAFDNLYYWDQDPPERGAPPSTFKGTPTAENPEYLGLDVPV
Procedure, shortened: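 BT-474 cells were treated for 4 h at 37 °C with four-fold compound dilutions from 10 μM to 0.01 nM final, then lysed. Phospho-ERBB2 in the lysates was measured by ELISA with TMB read-out at 450 nm. Relative activity was normalised between cell-free wells and 0.1% DMSO-treated cells.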

[4] = target: T10, Ba/F3 ERBB2-P780_Y781insGSP (Homo sapiens, UniProt P04626, DUP778-780, cells depend on it); assay: Cell viability assay (CellTiter Glo); type: cell-based, mouse; conditions: 72 hours; 3000 cells per well, 96-well plates; read-out: Cell viability IC50, nM, Ba/F3 ERBB2-P780_Y781insGSP
T10 construct: Ba/F3 cell lines were engineered to express human ERBB2 or EGFR kinases, rendering the cells IL-3 independent
T10 sequence (P04626 with tags, fused parts or gaps DUP778-780): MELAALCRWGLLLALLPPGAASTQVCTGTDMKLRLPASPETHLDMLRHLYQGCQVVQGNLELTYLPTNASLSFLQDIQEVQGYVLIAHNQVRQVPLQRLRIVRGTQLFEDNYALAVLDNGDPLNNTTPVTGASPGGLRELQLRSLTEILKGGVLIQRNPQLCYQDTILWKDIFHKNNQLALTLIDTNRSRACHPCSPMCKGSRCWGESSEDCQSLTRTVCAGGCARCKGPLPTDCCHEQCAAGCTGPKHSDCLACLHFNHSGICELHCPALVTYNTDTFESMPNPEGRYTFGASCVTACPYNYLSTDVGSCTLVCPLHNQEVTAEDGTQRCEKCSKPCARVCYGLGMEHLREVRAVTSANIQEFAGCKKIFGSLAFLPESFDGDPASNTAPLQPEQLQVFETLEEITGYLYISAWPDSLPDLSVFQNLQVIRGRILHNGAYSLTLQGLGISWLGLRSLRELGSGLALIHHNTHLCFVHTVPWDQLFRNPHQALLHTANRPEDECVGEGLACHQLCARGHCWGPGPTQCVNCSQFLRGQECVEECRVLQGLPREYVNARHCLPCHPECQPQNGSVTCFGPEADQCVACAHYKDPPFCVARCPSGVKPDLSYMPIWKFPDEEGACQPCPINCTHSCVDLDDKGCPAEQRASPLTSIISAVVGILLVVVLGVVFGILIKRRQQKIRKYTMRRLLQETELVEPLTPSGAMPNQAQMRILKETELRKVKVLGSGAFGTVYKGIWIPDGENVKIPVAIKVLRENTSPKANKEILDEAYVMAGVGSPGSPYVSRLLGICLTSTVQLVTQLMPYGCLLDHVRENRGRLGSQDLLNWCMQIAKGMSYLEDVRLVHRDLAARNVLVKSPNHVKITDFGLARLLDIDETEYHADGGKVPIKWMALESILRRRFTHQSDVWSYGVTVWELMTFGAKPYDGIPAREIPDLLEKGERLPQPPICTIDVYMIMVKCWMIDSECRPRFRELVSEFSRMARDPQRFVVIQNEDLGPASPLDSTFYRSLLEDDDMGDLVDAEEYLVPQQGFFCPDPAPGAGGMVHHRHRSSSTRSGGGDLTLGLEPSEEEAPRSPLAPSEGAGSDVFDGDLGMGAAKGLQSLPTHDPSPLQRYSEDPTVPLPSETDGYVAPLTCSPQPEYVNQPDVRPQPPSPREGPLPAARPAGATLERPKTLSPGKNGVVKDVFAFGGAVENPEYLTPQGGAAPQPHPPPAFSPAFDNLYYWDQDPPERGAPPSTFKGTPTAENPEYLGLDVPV
Experimental: as §2, §3, §4, §5, §6
as §7, with “Percent viability was normalized to a vehicle control only using the following formula: % viability=100×(LumSample−LumLC) (LumHC−LumLC).” left out

IC50 (MDA-MB-175VII cells): 562 nM | IC50 (BT-474 cells): 16.7 nM | IC50 (A431 cells): > 10000 nM | IC50 [3]: 72.9 nM
SMILES: CC#CC(=O)N(C)c1ccc2ncnc(Nc3ccc(Oc4ccn5ncnc5c4)cc3)c2c1 [Compound 8, N-methyl-N-[4-[(4-[[1,2,4]triazolo[1,5-a]pyridin-7-yloxy]phenyl)amino]quinazolin-6-yl]but-2-ynamide]
GI50 (Ba/F3 ERBB2-L869R): 52 nM | GI50 (Ba/F3 ERBB2-T798M): 1500 nM | GI50 (Ba/F3 ERBB2-G776VC): 117 nM | GI50 [1]: 276 nM | GI50 (Ba/F3 ERBB2 wt): 31 nM | GI50 (Ba/F3 ERBB2-L755S): 159 nM | GI50 (Ba/F3 ERBB2-V777L): 11 nM | GI50 [2]: 34 nM | GI50 [4]: 20.4 nM
